Measurements reported in patent US20230085307A1, “PYRIDAZINONE COMPOUND AND HERBICIDE” (NISSAN CHEMICAL CORPORATION, priority 2019, published 2023).

Columns and labels:
[1] = system: redroot pigweed; assay: Test Example 5: herbicidal effect by foliage application, plastic box (Table 20, symbol N); assay type: in vivo, redroot pigweed (Amaranthus retroflexus); conditions: foliage application, 320 g/ha
How it was run: (§1)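 Foliar spray test: emulsion formulation diluted in water to a set application rate, sprayed onto 14-day-old plants raised in diluvial soil at 25° C to 30° C under glass. Both herbicidal effect and crop effect rated visually three weeks later.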

[2] = system: southern crabgrass; assay: Test Example 5: herbicidal effect by foliage application, plastic box (Table 20, symbol F); assay type: in vivo, southern crabgrass (Digitaria ciliaris); conditions: foliage application, 320 g/ha
How it was run: as §1

[3] = system: blackgrass; assay: Test Example 5: herbicidal effect by foliage application, plastic box (Table 20, symbol J); assay type: in vivo, blackgrass (Alopecurus myosuroides); conditions: foliage application, 320 g/ha, evaluated three weeks after application
How it was run: as §1

[4] = system: late watergrass; assay: Test Example 1: herbicidal activity, application before weed generation under submerged conditions (Table 16, symbol A); assay type: in vivo, late watergrass (Echinochloa oryzicola)
How it was run: (§2)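 Alluvial soil was flooded to 4 cm depth, weed seeds were sown mixed and 2.5-leaf rice seedlings were transplanted. On sowing day, the compound's emulsion, diluted in water to a set dose, was applied to the water surface. Plants grew at 25–30 °C and were scored 0–5 after three weeks.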

[5] = system: barnyard grass; assay: Test Example 3: herbicidal effect by foliage application, Wagner pot (Table 18, symbol H); assay type: in vivo, barnyard grass (Echinochloa crus-galli)
How it was run: (§3)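 Plants were sown in alluvial soil held under 0.1–0.5 cm standing water and grown 14 days in a greenhouse at 25–30 °C. An emulsifiable formulation, water-diluted to the set dose, was then sprayed onto the foliage, and effects were scored three weeks later using previously defined criteria.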

[6] = system: Japanese bulrush; assay: Test Example 1: herbicidal activity, application before weed generation under submerged conditions (Table 16, symbol B); assay type: in vivo, Japanese bulrush (Schoenoplectus juncoides)
How it was run: as §2

[7] = system: green foxtail; assay: Test Example 5: herbicidal effect by foliage application, plastic box (Table 20, symbol G); assay type: in vivo, green foxtail (Setaria viridis); conditions: foliage application, 320 g/ha
How it was run: as §1

[8] = system: windgrass; assay: Test Example 5: herbicidal effect by foliage application, plastic box (Table 20, symbol L); assay type: in vivo, windgrass (Apera spica-venti); conditions: foliage application, 320 g/ha, evaluated three weeks after application
How it was run: as §1

[9] = system: Italian ryegrass; assay: Test Example 5: herbicidal effect by foliage application, plastic box (Table 20, symbol K); assay type: in vivo, Italian ryegrass (Lolium multiflorum); conditions: foliage application, 320 g/ha, evaluated three weeks after application
How it was run: as §1

[10] = system: chickweed; assay: Test Example 5: herbicidal effect by foliage application, plastic box (Table 20, symbol P); assay type: in vivo, common chickweed (Stellaria media); conditions: foliage application, 320 g/ha, evaluated three weeks after application
How it was run: as §1

[11] = system: persian speedwell; assay: Test Example 5: herbicidal effect by foliage application, plastic box (Table 20, symbol R); assay type: in vivo, Persian speedwell (Veronica persica); conditions: foliage application, 320 g/ha, evaluated three weeks after application
How it was run: as §1

[12] = system: rice flat sedge; assay: Test Example 3: herbicidal effect by foliage application, Wagner pot (Table 18, symbol E); assay type: in vivo, rice flat sedge (Cyperus iria)
How it was run: as §3

[13] = system: lambsquarters; assay: Test Example 5: herbicidal effect by foliage application, plastic box (Table 20, symbol O); assay type: in vivo, lambsquarters (Chenopodium album); conditions: foliage application, 320 g/ha
How it was run: as §1

[14] = system: wild oat; assay: Test Example 5: herbicidal effect by foliage application, plastic box (Table 20, symbol I); assay type: in vivo, wild oat (Avena fatua); conditions: foliage application, 320 g/ha, evaluated three weeks after application
How it was run: as §1

[15] = system: velvetleaf; assay: Test Example 5: herbicidal effect by foliage application, plastic box (Table 20, symbol M); assay type: in vivo, velvetleaf (Abutilon theophrasti); conditions: foliage application, 320 g/ha
How it was run: as §1

[16] = system: Chinese sprangletop; assay: Test Example 3: herbicidal effect by foliage application, Wagner pot (Table 18, symbol D); assay type: in vivo, chinese sprangletop (Leptochloa chinensis)
How it was run: as §3

[17] = system: barnyard grass; assay: Test Example 5: herbicidal effect by foliage application, plastic box (Table 20, symbol H); assay type: in vivo, barnyard grass (Echinochloa crus-galli); conditions: foliage application, 320 g/ha
How it was run: as §1

[18] = system: oval-leafed pondweed; assay: Test Example 1: herbicidal activity, application before weed generation under submerged conditions (Table 16, symbol C); assay type: in vivo, oval-leafed pondweed (Monochoria vaginalis)
How it was run: as §2

[19] = system: lambsquarters; assay: Test Example 4: herbicidal effect by soil treatment (Table 19, symbol O); assay type: in vivo, lambsquarters (Chenopodium album); conditions: amount of applied herbicide 320 g/ha
How it was run: (§4)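 Herbicidal effect was rated 3 weeks after treatment, using the scoring criteria of an earlier test. The compound, formulated as an emulsion and diluted in water to a set herbicide amount, had been sprayed uniformly on soil over freshly sown seeds. Growth took place in a greenhouse at 25° C. to 30° C.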

[20] = system: redroot pigweed; assay: Test Example 4: herbicidal effect by soil treatment (Table 19, symbol N); assay type: in vivo, redroot pigweed (Amaranthus retroflexus); conditions: amount of applied herbicide 320 g/ha
How it was run: as §4

[21] = system: southern crabgrass; assay: Test Example 4: herbicidal effect by soil treatment (Table 19, symbol F); assay type: in vivo, southern crabgrass (Digitaria ciliaris); conditions: amount of applied herbicide 320 g/ha
How it was run: as §4

[22] = system: barnyard grass; assay: Test Example 4: herbicidal effect by soil treatment (Table 19, symbol H); assay type: in vivo, barnyard grass (Echinochloa crus-galli); conditions: amount of applied herbicide 320 g/ha
How it was run: as §4

[23] = system: green foxtail; assay: Test Example 4: herbicidal effect by soil treatment (Table 19, symbol G); assay type: in vivo, green foxtail (Setaria viridis); conditions: amount of applied herbicide 320 g/ha
How it was run: as §4

[24] = system: velvetleaf; assay: Test Example 4: herbicidal effect by soil treatment (Table 19, symbol M); assay type: in vivo, velvetleaf (Abutilon theophrasti); conditions: amount of applied herbicide 320 g/ha
How it was run: as §4

[25] = evaluated three weeks after application
[26] = amount of applied herbicide 320 g/ha

COCCOCOc1c(C)nn(C)c(=O)c1-c1c(-c2ccc(OCC(=O)OC)cc2)sc2ccc(F)cc12 [2-071]
herbicidal effect on N: redroot pigweed [1, 25]: 4 (Herbicidal rate of 70% or more and less than 90%) | herbicidal effect on F: southern crabgrass [2, 25]: 0 (Herbicidal rate of 5% or less (almost no effect)) | herbicidal effect on J: blackgrass [3]: 0 (Herbicidal rate of 5% or less (almost no effect)) | Herbicidal effect on A: late watergrass (grade 0-5) ([4]; 320 g/ha applied herbicide): 3 (Herbicidal rate of 40% or more and less than 70%) | herbicidal effect on H (barnyard grass), rating 0-5 ([5]; 320 g/ha): 2 (Herbicidal rate of 20% or more and less than 40%) | Herbicidal effect on B: Japanese bulrush (grade 0-5) ([6]; 320 g/ha applied herbicide): 0 (Herbicidal rate of 5% or less (almost no effect)) | herbicidal effect on G: green foxtail [7, 25]: 0 (Herbicidal rate of 5% or less (almost no effect)) | herbicidal effect on L: windgrass [8]: 0 (Herbicidal rate of 5% or less (almost no effect)) | herbicidal effect on K: Italian ryegrass [9]: 0 (Herbicidal rate of 5% or less (almost no effect)) | herbicidal effect on P: chickweed [10]: 3 (Herbicidal rate of 40% or more and less than 70%) | herbicidal effect on R: persian speedwell [11]: 0 (Herbicidal rate of 5% or less (almost no effect)) | herbicidal effect on E (rice flat sedge), rating 0-5 ([12]; 320 g/ha): 2 (Herbicidal rate of 20% or more and less than 40%) | herbicidal effect on O: lambsquarters [13, 25]: 3 (Herbicidal rate of 40% or more and less than 70%) | herbicidal effect on I: wild oat [14]: 0 (Herbicidal rate of 5% or less (almost no effect)) | herbicidal effect on M: velvetleaf [15, 25]: 0 (Herbicidal rate of 5% or less (almost no effect)) | herbicidal effect on D (Chinese sprangletop), rating 0-5 ([16]; 320 g/ha): 3 (Herbicidal rate of 40% or more and less than 70%) | herbicidal effect on H: barnyard grass [17, 25]: 0 (Herbicidal rate of 5% or less (almost no effect)) | Herbicidal effect on C: oval-leafed pondweed (grade 0-5) ([18]; 320 g/ha applied herbicide): 0 (Herbicidal rate of 5% or less (almost no effect))

C#CCSc1ccc(-c2sc3ccc(F)cc3c2-c2c(O)c(C)nn(C)c2=O)cc1 [2-465]
N: redroot pigweed, herbicidal effect grade ([1]; three weeks after application): 5 (Herbicidal rate of 90% or more (almost completely withered)) | F: southern crabgrass, herbicidal effect grade ([2]; three weeks after application): 2 (Herbicidal rate of 20% or more and less than 40%) | Herbicidal effect, A: late watergrass [4, 26]: 4 (Herbicidal rate of 70% or more and less than 90%) | herbicidal effect on H: barnyard grass [5, 26]: 5 (Herbicidal rate of 90% or more (almost completely withered)) | herbicidal effect, O: lambsquarters [19]: 4 (Herbicidal rate of 70% or more and less than 90%) | Herbicidal effect, B: Japanese bulrush [6, 26]: 2 (Herbicidal rate of 20% or more and less than 40%) | G: green foxtail, herbicidal effect grade ([7]; three weeks after application): 5 (Herbicidal rate of 90% or more (almost completely withered)) | herbicidal effect, N: redroot pigweed [20]: 5 (Herbicidal rate of 90% or more (almost completely withered)) | herbicidal effect, F: southern crabgrass [21]: 0 (Herbicidal rate of 5% or less (almost no effect)) | herbicidal effect, H: barnyard grass [22]: 0 (Herbicidal rate of 5% or less (almost no effect)) | herbicidal effect on E: rice flat sedge [12, 26]: 5 (Herbicidal rate of 90% or more (almost completely withered)) | O: lambsquarters, herbicidal effect grade ([13]; three weeks after application): 5 (Herbicidal rate of 90% or more (almost completely withered)) | M: velvetleaf, herbicidal effect grade ([15]; three weeks after application): 4 (Herbicidal rate of 70% or more and less than 90%) | herbicidal effect on D: Chinese sprangletop [16, 26]: 3 (Herbicidal rate of 40% or more and less than 70%) | H: barnyard grass, herbicidal effect grade ([17]; three weeks after application): 5 (Herbicidal rate of 90% or more (almost completely withered)) | herbicidal effect, G: green foxtail [23]: 0 (Herbicidal rate of 5% or less (almost no effect)) | Herbicidal effect, C: oval-leafed pondweed [18, 26]: 3 (Herbicidal rate of 40% or more and less than 70%) | herbicidal effect, M: velvetleaf [24]: 0 (Herbicidal rate of 5% or less (almost no effect))
